We go through twelve compounds from paper PMC9598531 (Biology, 2022).

Like-named read-outs stand apart in the source and are kept apart here.

The subject of data set [1] is KMO. Particulars: KMO inhibitor; cited from earlier work.
Data set [2] addresses T1, human KMO (Homo sapiens, UniProt O15229). Kind of data set: KMO enzyme activity (inhibitor screening kit) assay. To be noted: for inhibition at 100 µM: read-out: % inhibition of KMO enzyme activity; for IC50: human KMO enzyme. Further details: purchased BPS Bioscience. The format is biochemical. The method, then:
The enzymatic assay was performed in duplicate. Ro 61-8048 was used as the positive control. The test compounds were dissolved in DMSO at 100 mM and diluted to 1 mM in assay buffer. A reaction mixture of assay buffer (50 μL), human KMO (20 μg/mL; 50 μL), test compounds (1 mM; 10 μL), and substrate (40 μL NADPH (10 mM) plus L-Kyn (20 mM)) were incubated in a 96-well plate at room temperature for 1.5 h. The absorbance was recorded at 340 nm. The enzyme activity was expressed as % activity as follows: % Activity=[(Abssample−Absblank)/(Abscontrol−Absblank)]×100
% Inhibition was calculated by subtracting the % activity from 100%.

The target in data set [3] is T1, human KMO. Kind of data set: SPR binding assay (Biacore T200). To be noted: for Kon: association rate; for Kd: dissociation constant. More on the design: purchased Cosmo Bio USA. The method, then:
The protein was manually immobilized on a Series S Sensor Chip CM5 based on an amine coupling method with minor modification. An SPR assay was conducted on the Biacore T200 SPR instrument (Cytiva; Marlborough, MA, USA). […] Ro 61-8048 stock solution (6 mM; dissolved in DMSO) was diluted into a series of concentrations ranging from 1.25 to 20 μM in the running buffer.
In general terms: In SPR one partner is held on a chip, and binding of the other changes the refractive index at the surface.

Data set [4] has as its target T1, human KMO. The experiment in a line: KMO enzyme activity (inhibitor screening kit) assay. The format is biochemical. More on the design: purchased BPS Bioscience. To be noted: read-out: % inhibition of KMO.
Data set [5] deals with T1, human KMO. The experiment in a line: Competitive SPR binding assay. To be noted: for Experimental RU: CFA 75 μM, Ro 61-8048 5 μM, alone or combined.
Experimental: HBS-P+ (20 mM; 0.02 M HEPES, 0.3 M NaCl, 0.1% v/v surfactant P20; pH 7.4) containing 3% DMSO was used as the running buffer. […] Ro 61-8048 was prepared as a final concentration of 5 μM in running buffer. […] FO(A)=1/1+KDA/CA(1+CB/KDB);FO(B)=1/1+KDB/CB(1+CA/KDA) where CA and CB are the respective concentrations of both binders, and KDA and KDB represent the equilibrium dissociation constants of the binders. The FO values were used to calculate the theoretical RU representative of competing compounds using the following equation [23]: Robserved=FO(A)·Rmax(A)+FO(B)·Rmax(B)
On the set-up of data set [6]: method as in PMID 21640374. Particulars: cited from earlier work.
For data set [7], the system named is KMO. Further details: method as in PMID 28464785. To be noted: rat liver and kidney homogenates in vitro; cited from earlier work.

In general, IC50 refers to the concentration that inhibits the measured activity by half. What is called inhibition is the percentage by which the read-out fell short of the control. The term Kd denotes the constant that tells how readily two partners part at equilibrium. Read a low Kd as higher affinity.

T1 sequence (O15229 whole entry): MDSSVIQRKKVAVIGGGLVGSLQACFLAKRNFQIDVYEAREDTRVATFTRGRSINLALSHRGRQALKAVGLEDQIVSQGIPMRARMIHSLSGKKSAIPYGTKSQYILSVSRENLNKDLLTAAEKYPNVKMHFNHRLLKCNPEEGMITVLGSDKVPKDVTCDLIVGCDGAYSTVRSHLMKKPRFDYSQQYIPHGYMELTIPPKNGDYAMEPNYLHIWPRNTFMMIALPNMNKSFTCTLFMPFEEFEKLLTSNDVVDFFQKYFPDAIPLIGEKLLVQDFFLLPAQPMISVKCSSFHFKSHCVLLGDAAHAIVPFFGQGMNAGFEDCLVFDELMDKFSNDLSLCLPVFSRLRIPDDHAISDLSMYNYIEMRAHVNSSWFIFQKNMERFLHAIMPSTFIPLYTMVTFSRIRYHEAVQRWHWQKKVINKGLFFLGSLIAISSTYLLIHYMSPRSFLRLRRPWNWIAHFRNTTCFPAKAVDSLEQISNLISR

As to `NC(CC(=O)c1cccc([N+](=O)[O-])c1)C(=O)O` (stereo not drawn), the IC50 in data set [1] is 0.9 µM.
On to `CCCCCc1cc(O)c2c(c1)OC(C)(CCC=C(C)C)C=C2` (stereo not drawn) [CBC, cannabichromene], for which the inhibition at 100 µM in data set [2] amounted to 0%.
Same read-out and setting: in the case of `C=C(C)[C@@H]1CCC(C)=C[C@H]1c1c(O)cc(CCCCC)cc1O` [CBD, cannabidiol, reference compound] it was 6%; in that of `C=C(C)[C@@H]1CCC(C)=C[C@H]1c1c(O)cc(CCC)cc1O` [CBDV, cannabidivarin], 0%.
On to `CCCCCc1cc(O)c(C/C=C(\C)CCC=C(C)C)c(O)c1` [CBG, cannabigerol], for which the inhibition at 100 µM in data set [2] was determined as 1%.
Turning to `CCCCCc1cc(O)c(C/C=C(\C)CCC=C(C)C)c(O)c1C(=O)O` [CBGA, cannabigerolic acid], the inhibition at 100 µM in data set [2] is 1%.
Take `CCCCCc1cc(O)c2c(c1)OC(C)(C)c1ccc(C)cc1-2` [CBN, cannabinol]: the inhibition at 100 µM in data set [2] was found to be 0%.
Consider `CCCCCc1cc(O)c2c(c1)OC(C)(C)C1=C2C(O)C(C)(O)CC1` (stereo not drawn) [CBT, cannabitriol], for which the “% inhibition of KMO enzyme activity” value in data set [2] (at 100 μM) was determined as 11%.
For the compound `COc1cc(-c2cc(=O)c3c(O)c(C/C=C(\C)CCC=C(C)C)c(O)cc3o2)ccc1O` [CFA, cannflavin A], in data set [2], the IC50 stood at 29.4 µM and the inhibition at 100 µM was found to be 99%. Also, in data set [3] (SPR), the Kon is 0.3 ×10^3, 1/Ms and binding was characterised by a dissociation constant (Kd) of 41 µM. Further, the Koff in data set [3] (SPR, dissociation rate) was 14.2 ×10^−3, 1/s. In addition, in data set [3] (SPR, read-out: association rate), the kon turned out to be 300 M⁻¹ s⁻¹. For the same compound, the Koff in data set [3] (SPR, read-out: dissociation rate) turned out to be 0.0142 s⁻¹. In addition, the “binding response unit (RU)” value in data set [3] (at 10 μM) is listed as 5.6 RU. The “binding response unit (RU)” value in data set [3] (at 19 μM) worked out at 10.4 RU. In data set [3] (at 38 μM), the “binding response unit (RU)” value amounted to 17.9 RU. In addition, in data set [3] (at 150 μM), the “binding response unit (RU)” value is on record as 35.7 RU. For the same compound, in data set [3] (at 300 μM), the “binding response unit (RU)” value is given as 40.7 RU. In addition, in data set [4], the inhibition at 2.5 µM was 8.5%, the inhibition at 5 µM is 15%, the inhibition at 20 µM amounted to 38% and the inhibition at 40 µM was determined as 59%. Besides, in data set [5], the “Experimental RU” value came out at 27 RU. In addition, the “binding mode of CFA and Ro 61-8048 to the KMO protein” value in data set [5] (competitive SPR analysis) is reported as “competitive, rather than non-competitive binding”.
In the case of `COc1ccc(S(=O)(=O)Nc2nc(-c3cccc([N+](=O)[O-])c3)cs2)cc1OC` [Ro 61-8048, 3,4-Dimethoxy-[-N-4-(Nitrophenyl)Thiazol-2YL]-Benzenesulfonamide, reference compound], the “crossing of the blood brain barrier” value in data set [6] is given as “cannot cross the blood brain barrier”. Further, the IC50 is 5.1 µM in data set [2] and 0.037 µM in data set [7]. Further, in data set [3] (SPR), the Kon is reported as 3.7 ×10^3, 1/Ms. The compound further yielded a Kd in data set [3] (SPR) of 11 µM. The Koff in data set [3] (SPR, dissociation rate) is on record as 38.5 ×10^−3, 1/s. In addition, the “binding response unit (RU)” value in data set [3] (at 1 μM) turned out to be 1.48 RU; in data set [3] (at 3 μM), 2.99 RU; in data set [3] (at 10 μM), 13.4 RU; in data set [3] (at 20 μM), 27.0 RU. The “Experimental RU” value in data set [5] was 19 RU.
On to `O=C(O)[C@H]1C[C@@H]1C(=O)c1ccc(Cl)c(Cl)c1` [UPF-648], for which the IC50 in data set [1] was 0.04 µM.
As for `CCCCCc1cc(O)c2c(c1)OC(C)(C)[C@@H]1CC=C(C)C[C@@H]21` [Δ^8 THC, delta-8-Tetrahydrocannabinol], in data set [2], the inhibition at 100 µM turned out to be 1%.
